The record followed here is ChEMBL document CHEMBL3507680, “University of Dundee, Gates Library screen for HepG2 cell viability”.

The data set is described as follows: Human HepG2 cell viability assay in 384 well format. Type of data set: toxicity, cell-based. Also on record: dose 125 nL, time 70.5 hour; cytotoxicity at 70.5 h: concentration not given beside the values. Conditions: HepG2 cells, read-out: Inhibition.
On to `COCc1csc(NC(=O)NCc2ncccc2C)n1`, for which the cytotoxicity at 70.5 h was 0.235%.
As for `O=C(Nc1ccccc1OCC(F)F)N[C@@H]1C=C[C@H](CO)C1`, the cytotoxicity at 70.5 h turned out to be 4.97%.
To `NC(=O)c1cnc(NC2CCC(c3ccccc3)CC2)c(Cl)c1` (configuration not stated) belongs -2.31%.
In the case of `CN(c1ncc(C(N)=O)cc1Cl)C1CCC(c2ccccc2)CC1` (configuration not stated) it was -3.58%.
As to `CC(COc1ccccc1F)NC(=O)N[C@@H]1C=C[C@H](CO)C1` (some centres not stated), the cytotoxicity at 70.5 h was -7.04%.
Turning to `CN(Cc1ncnn1C)C(=O)c1ccccc1NCc1ccccc1`, the cytotoxicity at 70.5 h turned out to be 8.8%.
In the case of `Cc1nnc(CN2CCC(Oc3ccc(C)c(C)c3)CC2)o1` it was -4.89%; in that of `COc1ccc(-c2cnc(CN3CCCC3CO)o2)cc1` (configuration not stated), 7.93%; in that of `CC(CNS(N)(=O)=O)c1ccc(F)c(F)c1` (configuration not stated), 3.38%.
To `COCCOc1ncccc1C(=O)N1CCCn2ncnc21` belongs -5.4%.
For `COCCN(Cc1ccccc1)c1cc(C)ncn1`, the cytotoxicity at 70.5 h is -6.25%.
To `COCc1nc(C(=O)N(Cc2ccccc2)CC(C)C(=O)O)cs1` (configuration not stated) belongs -4.63%; to `COCCN(CC(C)C)c1cc(C)ncn1`, 6.75%.
`COc1cccc2[nH]cc(CCNC(=O)N3CCCC3CO)c12` (configuration not stated): the cytotoxicity at 70.5 h is 2.83%.
To `OCC1CCCN1c1cc(NCCc2ccccn2)ncn1` (configuration not stated) belongs 14.5%.
To `Cn1ccnc1CN(Cc1cccnc1)CC1CCCO1` (configuration not stated) belongs -8.2%; to `CN(C)C(=O)C1CCCN1CCCNC(=O)Cc1ccccc1F` (configuration not stated), -16.1%; to `CCCS(=O)(=O)NC1CCN(c2cccc(F)c2C#N)CC1`, -19.1%.
`O=C(NCCNc1ncccn1)N1CCCC1c1ccncc1` (configuration not stated): the cytotoxicity at 70.5 h was found to be 1.65%.
In the case of `COc1ccc(C2CCCN2C(=O)NCCNc2ccccn2)cc1` (configuration not stated) it was -19.3%; in that of `O=C(NCC1CC1)C1CSCN1S(=O)(=O)c1ccccc1` (configuration not stated), -15.1%; in that of `Cc1cc(N2CCC(N(C)C(=O)c3ccc(C#N)cc3)CC2)nc(C)n1`, -7.65%.
To `Cc1cc(N2CCC(N(C)C(=O)c3ccccc3F)CC2)nc(C)n1` belongs 15.8%.
On to `OCC1CCCN1c1cc(NCc2cc3ccccc3o2)ncn1` (configuration not stated), for which the cytotoxicity at 70.5 h is -18.3%.
In the case of `OCC1CCCN1c1cc(NCCc2ccsc2)ncn1` (configuration not stated) it was -15.1%; in that of `OCC1CCCN1c1cc(NCCNc2cccnn2)ncn1` (configuration not stated), -6.7%.
In the case of `CSCC(CCO)NC(=O)Nc1ccc(Br)cc1` (configuration not stated) it was -11.8%; in that of `Cc1cn(-c2ccccc2)nc1NS(=O)(=O)c1ccc(C(=O)O)cc1F`, -18%.
To `Cc1cn(-c2ccccc2)nc1NS(=O)(=O)c1ccc(C(=O)O)cc1` belongs 10.8%; to `N#Cc1cc(F)c(N2CCC(NS(=O)(=O)c3cccs3)CC2)c(F)c1`, -20%; to `O=C(NCCCn1nc2ccccn2c1=O)NCC(C1CC1)C1CC1`, -12.3%.
With `O=C(NCCCn1nc2ccccn2c1=O)NC(C1CC1)C1CC1`, the cytotoxicity at 70.5 h is -16.5%.
In the case of `Cc1n[nH]c(C)c1C1CCCN1C(=O)NCC(=O)Nc1ccccc1` (configuration not stated) it was 6.46%; in that of `Cc1cc(CN(Cc2cccnc2)CC2CCCO2)on1` (configuration not stated), -1.62%; in that of `Cc1cnc(CN2CCN(c3nc(C)cs3)C(C)C2)cn1` (configuration not stated), -16.4%.
Consider `Cc1n[nH]c(C)c1C1CCCN1C(=O)NC(C)(C)C` (configuration not stated), for which the cytotoxicity at 70.5 h was determined as 4.46%.
For `Cc1n[nH]c(C)c1C1CCCN1C(=O)Cc1cccc(F)c1` (configuration not stated), the cytotoxicity at 70.5 h was -19.6%.
To `CCCN1CCC(CNC(=O)N2CCCC2c2c(C)n[nH]c2C)CC1` (configuration not stated) belongs 3.87%; to `CC1CN(C)c2ccccc2CN1C(=O)c1ccncc1F` (configuration not stated), 35%; to `Cc1nc(C)n(CC2CN(CCn3cccn3)CCO2)n1` (configuration not stated), 31.9%.
In the case of `Cc1ccc(OCCC(=O)NC(C)c2ccncc2)cc1` (configuration not stated) it was -2.16%.
Consider `CS(=O)(=O)NCC1CCCN(C(=O)c2ccc3c(c2)CCC3)C1` (configuration not stated), for which the cytotoxicity at 70.5 h was found to be 3.24%.
In the case of `Cc1nccn1-c1cc(CNC(=O)c2ccnc(N(C)C)c2)ccn1` it was -10.5%.
To `CC(C)S(=O)(=O)NCC1CCCN(C(=O)c2ccc(Cl)cc2)C1` (configuration not stated) belongs 6.86%.
To `Cc1occc1C(=O)N1CCCN(Cc2cnn(C(C)C)c2)CC1` belongs -6.65%.
As for `Cc1nc(C)n(CC2CN(CCCc3ccccc3)CCO2)n1` (configuration not stated), the cytotoxicity at 70.5 h is -4.71%.
In the case of `COc1ccc(CCN2CCOC(Cn3nc(C)nc3C)C2)cc1` (configuration not stated) it was -5.86%; in that of `Cc1cc(C)cc(C(=O)Nc2ccc(CC3CC(=O)NC3=O)cc2)c1` (configuration not stated), -1.28%.
Turning to `C1CN(c2nc(C3CC3)ns2)CCO1`, the cytotoxicity at 70.5 h was -5.18%.
To `O=C(NCCOc1ncc(Cl)cc1Cl)c1ccoc1` belongs 21.7%; to `O=C(NCCOc1ncc(Cl)cc1Cl)c1cccnc1`, 8.03%; to `CCc1ccc(C(=O)Nc2ccc(CC3CC(=O)NC3=O)cc2)s1` (configuration not stated), -4%.
To `CCc1ccc(CNCC2CCN(CCO)CC2)cc1` belongs 16.5%; to `Cc1ccc2c(c1)OC1(NC2=O)C(=O)N(C)c2ccccc21` (configuration not stated), 16.7%.
For the molecule `Cc1ccc(CNC(c2ccc(F)cc2)c2nccn2C)o1` (configuration not stated), the cytotoxicity at 70.5 h was -7.32%.
In the case of `Cc1cc(C(C)NC(=O)CCN2C(=O)c3ccccc3C2=O)c(C)o1` (configuration not stated) it was 28.1%; in that of `O=C(NCCCn1cncn1)c1ccc(-c2ccco2)[nH]c1=O`, -3.92%; in that of `O=C(NCCCn1cncn1)c1ccc(-c2ccccc2)[nH]c1=O`, -11.4%.
To `Cc1cc(C(=O)NCC2(C(N)=O)CCOCC2)nn1C(C)(C)C` belongs -6.96%.
With `CC(C)(C)n1nc(C(=O)NCC2(C(N)=O)CCOCC2)cc1C1CC1`, the cytotoxicity at 70.5 h was -22.5%.
In the case of `CC(C)(C)n1nc(C2CC2)cc1C(=O)NCC1(C(N)=O)CCOCC1` it was 22.2%; in that of `Cc1nn(C(C)(C)C)c(C)c1C(=O)NCC1(C(N)=O)CCOCC1`, -8.76%; in that of `CC1CN(C)CCN1C(=O)c1cnn(-c2ccc(Cl)cc2)c1` (configuration not stated), 19.4%.
To `CCC(C)NC(=O)c1ccc(NC(=O)CCc2ccncc2)c(C)c1` (configuration not stated) belongs -3.96%; to `Cc1noc(C)c1CSc1nc(=O)ccn1C(C)C`, -3.07%.
To `Cc1nc(CN2CCCC(N(C)c3cnc4ccccc4n3)C2)no1` (configuration not stated) belongs 20.5%; to `O=C(NCc1ccccc1CO)C1COc2ccccc21` (configuration not stated), -0.572%.
For `CS(=O)(=O)c1nccn1Cc1ccncc1`, the cytotoxicity at 70.5 h was -4.41%.
In the case of `CC(CC(=O)N1CCCS1(=O)=O)c1ccccc1C(F)(F)F` (configuration not stated), the cytotoxicity at 70.5 h came out at 3.27%.
In the case of `CCC(C)NC(=O)c1ccc(NC(=O)CCCn2cncn2)c(C)c1` (configuration not stated) it was 14.8%; in that of `N#CC(NC(=O)CCC1CCC1)c1cnn(-c2ccccc2)c1` (configuration not stated), 17.3%; in that of `N#CC(NC(=O)CC1CCSCC1)c1cnn(-c2ccccc2)c1` (configuration not stated), -3.51%.
As to `CS(=O)(=O)c1nccn1Cc1ccc(OC(F)F)cc1`, the cytotoxicity at 70.5 h is -4.68%.
Turning to `O=C(c1cc[nH]n1)N(Cc1cccc(O)c1)CC1CC1`, the cytotoxicity at 70.5 h was -7.41%.
With `CC(NCCn1c(=O)oc2ccccc21)c1ccccn1` (configuration not stated), the cytotoxicity at 70.5 h is -5.54%.
As to `Cc1nnc2n1CCN(C(C)c1nnc(-c3cccs3)o1)C2` (configuration not stated), the cytotoxicity at 70.5 h was -8.71%.
Consider `O=C(c1cc2ccccc2o1)N1CCN(Cn2cc(Cl)cn2)CC1`, for which the cytotoxicity at 70.5 h is -5.33%.
For the molecule `Cc1noc(C)c1CN(C)C(=O)CCOc1ccc(Cl)cc1`, the cytotoxicity at 70.5 h is -11.7%.
To `Cc1cc(C(=O)N2CCN(Cn3cc(Cl)cn3)CC2)on1` belongs -8.38%; to `Cc1ccc(-c2nnc(C(C)N3CCn4c(C)nnc4C3)o2)cc1` (configuration not stated), -1.43%; to `CC(NC(N)=O)C(=O)Nc1ccc(OCc2cccc(F)c2)c(F)c1` (configuration not stated), -10.3%.
On to `Cc1cccc(COc2ccc(NC(=O)C(C)NC(N)=O)c(C)c2)c1` (configuration not stated), for which the cytotoxicity at 70.5 h was -9.19%.
In the case of `Cc1ccccc1OCCC(=O)N(C)Cc1c(C)noc1C` it was -11.1%; in that of `CSC(C)C(=O)N1CCN(CC(C)(C)O)CC1` (configuration not stated), -14%; in that of `CC(C)c1ccc(C(=O)O)cc1S(=O)(=O)Nc1ccc(=O)n(C)c1`, 2.84%.
To `CCN1CCN(C(=O)Cc2ccc(S(=O)(=O)C(F)F)cc2)CC1` belongs 5.94%; to `CC(c1nnc(-c2cccs2)o1)N1CCn2c(nnc2C2CC2)C1` (configuration not stated), -0.792%; to `Cc1csc(C(C#N)C(=O)Nc2ccccc2)n1` (configuration not stated), -0.341%.
To `Cc1noc(C)c1CNC(C(=O)N1CCOCC1)C(C)C` (configuration not stated) belongs -7.07%.
Turning to `CCC1CN(C(=O)c2cnc(-c3ccccc3)s2)CCO1` (configuration not stated), the cytotoxicity at 70.5 h is -1.27%.
In the case of `CCc1ccsc1C(=O)N1CCN(C(=O)c2ccc(C)o2)CC1` it was -5.92%; in that of `COC(=O)c1sccc1CN1CCN(C(=O)c2ccc(C)o2)CC1`, -8.65%; in that of `CCCNC(=O)CSCc1ccc(S(=O)(=O)N(C)C)o1`, -6.98%.
To `CC(C)C(c1cccnc1)N(C)C(=O)Cc1ccc(O)cc1` (configuration not stated) belongs 0.393%; to `Cc1cnc(CN(C)C2CCN(Cc3nc4c(F)cccc4[nH]3)C2)o1` (configuration not stated), 1.64%; to `COCC(O)CN(C)c1ccnc2ccc(Cl)cc12` (configuration not stated), 13.9%.
Regarding `Cc1noc(C)c1CCC(=O)Nc1ccn(C)n1`, the cytotoxicity at 70.5 h came out at 1.75%.
In the case of `Cc1noc(C)c1C(=O)N1CCSc2ccc(Cl)cc21` it was 11.5%; in that of `Cc1cc(C)cc(OCCN(C)Cc2ccc(S(=O)(=O)N(C)C)o2)c1`, 19.6%.
Turning to `Cc1cc(C(=O)N2CCCC(c3nncn3C)C2)no1` (configuration not stated), the cytotoxicity at 70.5 h was -5.95%.
On to `O=C(Nc1ccccn1)C1CCN(Cc2cc3c(cc2O)OCO3)CC1`, for which the cytotoxicity at 70.5 h is 3.83%.
To `CC1CCN(S(=O)(=O)N2Cc3ccccc3C[C@H]2C(N)=O)CC1` belongs -4.51%.
